Experimental data from patent US9113629B2, “4-amino-6-(4-substituted-phenyl)-picolinates and 6-amino-2-(4-substituted-phenyl)-pyrimidine-4-carboxylates and their use as herbicides” (DOW AGROSCIENCES LLC, priority 2013, dated 2015).
Read-outs that look alike come from different tables or passages of the source.

How the values were obtained:
[1] = tested on: Key Grass and Sedge Weeds as well as Grass Crops; test: Post-emergent Test II herbicidal activity (Table 6); assay type: in vivo; settings: post-emergence, 336 h; for pest or weed control at 140 g/ha: application rate 140 g ai/ha; for pest or weed control at 70 g/ha: application rate 70 g ai/ha
In short: (§1)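 Greenhouse post-emergent assay: seedlings (first/second true leaf) in Metro-Mix 360 were sprayed at 187 L/ha at a top rate plus twofold dilutions down to 1/16×; solvent-blank controls were included. Percent visual injury was read at 14 d.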

[2] = tested on: Key Broadleaf Weed and Crop Species; test: Post-emergent Test II herbicidal activity (Table 5); assay type: in vivo; settings: post-emergence, 336 h, post-emergent, 14 days after application; for pest or weed control at 70 g/ha: 70 g ai/ha; for pest or weed control at 140 g/ha: 140 g ai/ha
In short: as §1

[3] = Triticum aestivum, TRZSS (wheat), read-out: Visual Growth Reduction (%) 14 Days After Application, TRZSS
[4] = CYPES: yellow nutsedge (Cyperus esculentus), read-out: Visual Growth Reduction (%) 14 Days After Application, CYPES
[5] = DIGSA: crabgrass (Digitaria sanguinalis), read-out: Visual Growth Reduction (%) 14 Days After Application, DIGSA
[6] = ECHCG: barnyardgrass (Echinochloa crus-galli), read-out: Visual Growth Reduction (%) 14 Days After Application, ECHCG
[7] = ORYSA: rice (Oryza sativa), read-out: Visual Growth Reduction (%) 14 Days After Application, ORYSA
[8] = SETFA: giant foxtail (Setaria faberi), read-out: Visual Growth Reduction (%) 14 Days After Application, SETFA
[9] = SORVU: grain sorghum (Sorghum vulgare), read-out: Visual Growth Reduction (%) 14 Days After Application, SORVU
[10] = ZEAMX: maize, corn (Zea mays), read-out: Visual Growth Reduction (%) 14 Days After Application, ZEAMX
[11] = ABUTH: velvetleaf (Abutilon theophrasti), read-out: Visual Growth Reduction (%) 14 Days After Application ABUTH
[12] = AMARE: redroot pigweed (Amaranthus retroflexus), read-out: Visual Growth Reduction (%) 14 Days After Application AMARE
[13] = BRSNN: oilseed-rape, canola (Brassica napus), read-out: Visual Growth Reduction (%) 14 Days After Application BRSNN
[14] = CHEAL: lambsquarters (Chenopodium album), read-out: Visual Growth Reduction (%) 14 Days After Application CHEAL
[15] = EPHHL: wild poinsettia (Euphorbia heterophylla), read-out: Visual Growth Reduction (%) 14 Days After Application EPHHL
[16] = HELAN: sunflower (Helianthus annuus), read-out: Visual Growth Reduction (%) 14 Days After Application HELAN
[17] = VIOTR: wild pansy (Viola tricolor), read-out: Visual Growth Reduction (%) 14 Days After Application VIOTR

| Compound | pest or weed control at 140 g/ha [1, 3] [%] | pest or weed control at 70 g/ha [1, 4] [%] | pest or weed control at 140 g/ha [1, 4] [%] | pest or weed control at 70 g/ha [1, 5] [%] | pest or weed control at 140 g/ha [1, 5] [%] | pest or weed control at 70 g/ha [1, 6] [%] | pest or weed control at 140 g/ha [1, 6] [%] | pest or weed control at 70 g/ha [1, 7] [%] | pest or weed control at 140 g/ha [1, 7] [%] | pest or weed control at 70 g/ha [1, 8] [%] | pest or weed control at 140 g/ha [1, 8] [%] | pest or weed control at 70 g/ha [1, 9] [%] | pest or weed control at 140 g/ha [1, 9] [%] | pest or weed control at 70 g/ha [1, 10] [%] | pest or weed control at 140 g/ha [1, 10] [%] | pest or weed control at 70 g/ha [2, 11] [%] | pest or weed control at 140 g/ha [2, 11] [%] | pest or weed control at 70 g/ha [2, 12] [%] | pest or weed control at 140 g/ha [2, 12] [%] | pest or weed control at 70 g/ha [2, 13] [%] | also measured |
| --- | --- | --- | --- | --- | --- | --- | --- | --- | --- | --- | --- | --- | --- | --- | --- | --- | --- | --- | --- | --- | --- |
| COC(=O)c1nc(-c2cc(F)c(I)cc2F)c(F)c(N)c1Cl [Compound 55, methyl 4-amino-3-chloro-6-(2,5-difluoro-4-iodophenyl)-5-fluoropicolinate] | 95 to 100 | 95 to 100 | 95 to 100 | 85 to 94 | 85 to 94 | 95 to 100 | 95 to 100 | 0 to 29 | 0 to 29 | 95 to 100 | 95 to 100 | 85 to 94 | 95 to 100 | 60 to 74 | 85 to 94 | 95 to 100 | 95 to 100 | 95 to 100 | 95 to 100 | 95 to 100 | pest or weed control at 140 g/ha [2, 13]: 95 to 100%; pest or weed control at 70 g/ha [2, 14]: 95 to 100%; pest or weed control at 140 g/ha [2, 14]: 95 to 100%; pest or weed control at 70 g/ha [2, 15]: 95 to 100%; pest or weed control at 140 g/ha [2, 15]: 95 to 100%; pest or weed control at 70 g/ha [2, 16]: 95 to 100%; pest or weed control at 140 g/ha [2, 16]: 95 to 100%; pest or weed control at 70 g/ha [2, 17]: 95 to 100%; pest or weed control at 140 g/ha [2, 17]: 95 to 100% |
| COC(=O)c1nc(-c2cc(F)c(I)cc2F)cc(N)c1Cl [Compound 56] | 60 to 74 | 95 to 100 | 95 to 100 | 75 to 84 | 85 to 94 | 95 to 100 | 95 to 100 | 0 to 29 | 0 to 29 | 95 to 100 | 95 to 100 | 75 to 84 | 85 to 94 | 85 to 94 | 85 to 94 | 95 to 100 | 95 to 100 | 95 to 100 | 95 to 100 | 85 to 94 | pest or weed control at 70 g/ha [1, 3]: 60 to 74%; pest or weed control at 140 g/ha [2, 13]: 85 to 94%; pest or weed control at 70 g/ha [2, 14]: 95 to 100%; pest or weed control at 140 g/ha [2, 14]: 95 to 100%; pest or weed control at 70 g/ha [2, 15]: 95 to 100%; pest or weed control at 140 g/ha [2, 15]: 95 to 100%; pest or weed control at 70 g/ha [2, 16]: 75 to 84%; pest or weed control at 140 g/ha [2, 16]: 85 to 94%; pest or weed control at 70 g/ha [2, 17]: 95 to 100%; pest or weed control at 140 g/ha [2, 17]: 95 to 100% |
| C=Cc1c(C(=O)OC)nc(-c2ccc(Br)cc2)c(F)c1N [Compound 57, methyl 4-amino-6-(4-bromophenyl)-5-fluoro-3-vinylpicolinate] | 0 to 29 | 95 to 100 | 95 to 100 | 0 to 29 | 0 to 29 | 0 to 29 | 0 to 29 | 0 to 29 | 0 to 29 | 0 to 29 | 0 to 29 | 75 to 84 | 95 to 100 | 0 to 29 | 0 to 29 | 85 to 94 | 85 to 94 | 85 to 94 | 95 to 100 | 60 to 74 | pest or weed control at 70 g/ha [1, 3]: 0 to 29%; pest or weed control at 140 g/ha [2, 13]: 75 to 84%; pest or weed control at 70 g/ha [2, 14]: 85 to 94%; pest or weed control at 140 g/ha [2, 14]: 85 to 94%; pest or weed control at 70 g/ha [2, 15]: 85 to 94%; pest or weed control at 140 g/ha [2, 15]: 85 to 94%; pest or weed control at 70 g/ha [2, 16]: 85 to 94%; pest or weed control at 140 g/ha [2, 16]: 85 to 94%; pest or weed control at 70 g/ha [2, 17]: 0 to 29%; pest or weed control at 140 g/ha [2, 17]: 0 to 29% |
